Patent US9725437B2, “Fatty acid synthase inhibitors” (GlaxoSmithKline Intellectual Property (No.2) Limited, priority 2013, dated 2017)

Legend:
[1] = Rat pharmacokinetic study (iv clearance, oral exposure); type: in vivo; conditions: for Rat iv CI: in vivo clearance, average of 1 to 4 animals; for Rat po DNAUC: dose-normalized AUC, 2-3 animals per experiment
Description: (§1) Mouse and rat pharmacokinetic studies were performed generally as described in Xiang et al. (Preclinical drug metabolism and pharmacokinetic evaluation of GW844520, a novel mitochondrial electron transport inhibitor. H Xiang, J McSurdy-Freed, G Subbanagounder, E Hugger, R Bambal, C Han, S Ferrar, D Gargallo and CB Davis. (2006) Journal of Pharmaceutical Sciences, 95:2657-2672) and Davis et al. (Comparative preclinical drug metabolism and pharmacokinetic evaluation of novel 4-aminoquinoline anti-malarials. C B Davis, R Bambal, G S Moorthy, E Hugger, H Xiang, B Kevin Park, A E Shone, P M O'Neill and S A Ward (2009) Journal of Pharmaceutical Sciences, 98:362-377) with the following exceptions. For some mouse studies, cannulated animals were used and serial blood samples were collected from the individuals (n=2/compound/route of administration) as opposed to using a composite study design. In some iv rat studies, drugs were infused for 1 or 2 h and a single blood sample collected to estimate clearance assuming steady-state conditions (n=2/compound). This assay was employed as an initial PK screen to prioritize compounds for further study.
(§2) Rodent pharmacokinetic (PK) data were collected on the exemplified compounds according to the methods described above. In vivo clearance (Cl) data are reported as the average of 1 to 4 animals across 1 to 2 experiments and are categorized as follows. In rats, a ‘low’ clearance is designated as <17 mL/min/kg, a ‘moderate’ clearance is designated as 17-39 mL/min/kg, and a ‘high’ clearance is designated as >39 mL/min/kg. In mice, a ‘low’ clearance is designated as <30 mL/min/kg, a ‘moderate’ clearance is designated as 30-70 mL/min/kg, and a ‘high’ clearance is designated as >70 mL/min/kg. In vivo oral exposure (po) data, reported as average dose-normalized AUCs (DNAUC) per experiment of 2-3 animals, are categorized as ‘poor’ for DNAUC ≦101 ng·h/mL/mg/kg and ‘good’ for DNAUC >101 ng·h/mL/mg/kg. When multiple experiments were performed under different conditions, the totality of the data was considered. In cases where both ‘poor’ and ‘good’ oral exposures were observed, a designation of ‘mixed’ is utilized to represent mixed and unoptimized results.

[2] = Mouse pharmacokinetic study (iv clearance, oral exposure); type: in vivo; design: key to Mouse po DNAUC: ‘poor’ for DNAUC ≦101 ng·h/mL/mg/kg; ‘good’ for DNAUC >101 ng·h/mL/mg/kg; In cases where both ‘poor’ and ‘good’ oral exposures were observed, a designation of ‘mixed’ is utilized; conditions: for Mouse iv CI: in vivo clearance, average of 1 to 4 animals; for Mouse po DNAUC: dose-normalized AUC, 2-3 animals per experiment
Description: as §1, §2

Cc1cnc2cc(-c3ccc(-n4c(C[C@@H]5CCN(C(=O)C6CC6)C5)n[nH]c4=O)c(F)c3)ccc2c1 [Example 1, (S)-3-((1-(cyclopropanecarbonyl)pyrrolidin-3-yl)methyl)-4-(2-fluoro-4-(3-methylquinolin-7-yl)phenyl)-1H-1,2,4-triazol-5(4H)-one]
Rat iv CI [1]: moderate (a ‘moderate’ clearance is designated as 17-39 mL/min/kg) | Rat po DNAUC [1]: poor (‘poor’ for DNAUC ≦101 ng·h/mL/mg/kg) | Mouse iv CI [2]: low (In mice, a ‘low’ clearance is designated as <30 mL/min/kg) | Mouse po DNAUC [2]: good (‘good’ for DNAUC >101 ng·h/mL/mg/kg)

O=C(C1CC1)N1CC[C@@H](Cc2n[nH]c(=O)n2-c2ccc(-c3ccc4cc(F)cnc4c3)cc2F)C1 [Example 3, (S)-3-((1-(cyclopropanecarbonyl)pyrrolidin-3-yl)methyl)-4-(2-fluoro-4-(3-fluoroquinolin-7-yl)phenyl)-1H-1,2,4-triazol-5(4H)-one]
Rat iv CI [1]: moderate (a ‘moderate’ clearance is designated as 17-39 mL/min/kg)

Cn1nc(C[C@@H]2CCN(C(=O)C3CC3)C2)n(-c2ccc(-c3ccc4cc(Cl)cnc4c3)cc2F)c1=O [Example 9, (S)-4-(4-(3-chloroquinolin-7-yl)-2-fluorophenyl)-3-((1-(cyclopropanecarbonyl)pyrrolidin-3-yl)methyl)-1-methyl-1H-1,2,4-triazol-5(4H)-one]
Rat iv CI [1]: moderate (a ‘moderate’ clearance is designated as 17-39 mL/min/kg) | Rat po DNAUC [1]: good (‘good’ for DNAUC >101 ng·h/mL/mg/kg) | Mouse iv CI [2]: low (In mice, a ‘low’ clearance is designated as <30 mL/min/kg)

CCC(=O)N1CC[C@@H](Cc2n[nH]c(=O)n2-c2ccc(-c3ccc4cc(Cl)cnc4c3)cc2F)C1 [Example 6, (S)-4-(4-(3-chloroquinolin-7-yl)-2-fluorophenyl)-3-((1-propionylpyrrolidin-3-yl)methyl)-1H-1,2,4-triazol-5(4H)-one]
Rat iv CI [1]: moderate (a ‘moderate’ clearance is designated as 17-39 mL/min/kg) | Rat po DNAUC [1]: good (‘good’ for DNAUC >101 ng·h/mL/mg/kg) | Mouse iv CI [2]: low (In mice, a ‘low’ clearance is designated as <30 mL/min/kg) | Mouse po DNAUC [2]: mixed

O=C(C1CC1)N1CC[C@@H](Cc2n[nH]c(=O)n2-c2ccc(-c3ccc4cc(Cl)cnc4c3)cc2F)C1 [Example 2, (S)-4-(4-(3-chloroquinolin-7-yl)-2-fluorophenyl)-3-((1-(cyclopropanecarbonyl)pyrrolidin-3-yl)methyl)-1H-1,2,4-triazol-5(4H)-one]
Rat iv CI [1]: moderate (a ‘moderate’ clearance is designated as 17-39 mL/min/kg) | Rat po DNAUC [1]: good (‘good’ for DNAUC >101 ng·h/mL/mg/kg) | Mouse iv CI [2]: low (In mice, a ‘low’ clearance is designated as <30 mL/min/kg) | Mouse po DNAUC [2]: good (‘good’ for DNAUC >101 ng·h/mL/mg/kg)

CCC(=O)N1CC[C@@H](Cc2nn(C)c(=O)n2-c2ccc(-c3ccc4cc(F)cnc4c3)cc2F)C1 [Example 10, (S)-4-(2-fluoro-4-(3-fluoroquinolin-7-yl)phenyl)-1-methyl-3-((1-propionylpyrrolidin-3-yl)methyl)-1H-1,2,4-triazol-5(4H)-one]
Rat iv CI [1]: low (In rats, a ‘low’ clearance is designated as <17 mL/min/kg) | Mouse iv CI [2]: low (In mice, a ‘low’ clearance is designated as <30 mL/min/kg)

CCC(=O)N1CC[C@@H](Cc2n[nH]c(=O)n2-c2ccc(-c3ccc4cc(F)cnc4c3)cc2F)C1 [Example 4, (S)-4-(2-fluoro-4-(3-fluoroquinolin-7-yl)phenyl)-3-((1-propionylpyrrolidin-3-yl)methyl)-1H-1,2,4-triazol-5(4H)-one]
Rat iv CI [1]: low (In rats, a ‘low’ clearance is designated as <17 mL/min/kg) | Rat po DNAUC [1]: poor (‘poor’ for DNAUC ≦101 ng·h/mL/mg/kg) | Mouse iv CI [2]: low (In mice, a ‘low’ clearance is designated as <30 mL/min/kg) | Mouse po DNAUC [2]: good (‘good’ for DNAUC >101 ng·h/mL/mg/kg)

CCC(=O)N1CC[C@@H](Cc2nn(C)c(=O)n2-c2ccc(-c3ccc4cc(C)cnc4c3)cc2F)C1 [Example 7, (S)-4-(2-fluoro-4-(3-methylquinolin-7-yl)phenyl)-1-methyl-3-((1-propionylpyrrolidin-3-yl)methyl)-1H-1,2,4-triazol-5(4H)-one]
Rat iv CI [1]: low (In rats, a ‘low’ clearance is designated as <17 mL/min/kg) | Rat po DNAUC [1]: good (‘good’ for DNAUC >101 ng·h/mL/mg/kg) | Mouse iv CI [2]: low (In mice, a ‘low’ clearance is designated as <30 mL/min/kg) | Mouse po DNAUC [2]: good (‘good’ for DNAUC >101 ng·h/mL/mg/kg)

O=C(C1CC1)N1CC[C@@H](Cc2n[nH]c(=O)n2-c2ccc(-c3ccc4cccnc4c3)cc2F)C1 [#124 from WO2011/103546A1, 5-{[(3S)-1-(cyclopropylcarbonyl)-3-pyrrolidinyl]methyl}-4-[2-fluoro-4-(7-quinolinyl)phenyl]-2,4-dihydro-3H-1,2,4-triazol-3-one, reference compound]
Rat iv CI [1]: high (a ‘high’ clearance is designated as >39 mL/min/kg) | Rat po DNAUC [1]: poor (‘poor’ for DNAUC ≦101 ng·h/mL/mg/kg) | Mouse iv CI [2]: moderate (a ‘moderate’ clearance is designated as 30-70 mL/min/kg) | Mouse po DNAUC [2]: poor (‘poor’ for DNAUC ≦101 ng·h/mL/mg/kg)

CCC(=O)N1CC[C@@H](Cc2n[nH]c(=O)n2-c2ccc(-c3ccc4cc(C)cnc4c3)cc2F)C1 [Example 5, (S)-4-(2-fluoro-4-(3-methylquinolin-7-yl)phenyl)-3-((1-propionylpyrrolidin-3-yl)methyl)-1H-1,2,4-triazol-5(4H)-one]
Rat iv CI [1]: low (In rats, a ‘low’ clearance is designated as <17 mL/min/kg) | Rat po DNAUC [1]: good (‘good’ for DNAUC >101 ng·h/mL/mg/kg) | Mouse iv CI [2]: low (In mice, a ‘low’ clearance is designated as <30 mL/min/kg) | Mouse po DNAUC [2]: mixed

CCC(=O)N1CC[C@@H](Cc2nn(C)c(=O)n2-c2ccc(-c3ccc4cc(Cl)cnc4c3)cc2F)C1 [Example 8, (S)-4-(4-(3-chloroquinolin-7-yl)-2-fluorophenyl)-1-methyl-3-((1-propionylpyrrolidin-3-yl)methyl)-1H-1,2,4-triazol-5(4H)-one]
Rat iv CI [1]: low (In rats, a ‘low’ clearance is designated as <17 mL/min/kg) | Rat po DNAUC [1]: good (‘good’ for DNAUC >101 ng·h/mL/mg/kg) | Mouse iv CI [2]: low (In mice, a ‘low’ clearance is designated as <30 mL/min/kg) | Mouse po DNAUC [2]: good (‘good’ for DNAUC >101 ng·h/mL/mg/kg)

CCC(=O)N1CC[C@@H](Cc2n[nH]c(=O)n2-c2ccc(-c3ccc4cccnc4c3)cc2F)C1 [#196 from WO2011/103546A1, 4-[2-fluoro-4-(7-quinolinyl)phenyl]-5-{[(3S)-1-propanoyl-3-pyrrolidinyl]methyl}-2,4-dihydro-3H-1,2,4-triazol-3-one, reference compound]
Rat iv CI [1]: moderate (a ‘moderate’ clearance is designated as 17-39 mL/min/kg) | Rat po DNAUC [1]: poor (‘poor’ for DNAUC ≦101 ng·h/mL/mg/kg) | Mouse iv CI [2]: moderate (a ‘moderate’ clearance is designated as 30-70 mL/min/kg) | Mouse po DNAUC [2]: poor (‘poor’ for DNAUC ≦101 ng·h/mL/mg/kg)
